Measurements published in patent US11479563B2, “Biphenyl compound or salt thereof” (TAIHO PHARMACEUTICAL CO., LTD., priority 2017, dated 2022).

Legend:
[1] = system: HEL cells (human acute myelocytic leukemia cell lines); assay: cells; conditions: read-out: Cell-Growth Inhibition Test: HEL Cells IC50 (nM);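 note: viable cell count by CellTiter-Glo 2.0 luminescence after 5 days of culture at 37 °C, growth expressed relative to DMSO-only wells as 100%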
Method: Under the following conditions, an in vitro cell-growth inhibition test was performed with respect to HEL cells (human acute myelocytic leukemia cell lines), NCI-H1417 cells (human small-cell lung cancer cell lines), and NCI-H146 cells (human small-cell lung cancer cell lines).
The cells with the compound of the present invention or with dimethylsulfoxide alone were cultured at 37° C. in a 5% carbon-dioxide-containing incubator for 5 days (HEL cells) or 10 days (NCI-H1417 cells and NCI-H146 cells). After culture, the plate was allowed to stand at room temperature for 30 minutes, and 100 μL of the supernatant was removed from each well to leave 100 μL of the cell culture solution. To each well containing the remaining 100 μL of the cell culture solution, the same amount of CellTiter-Glo 2.0 Assay (Promega, Cat #: G9242) was added. The microplate was shaken with a plate mixer for 1 minute and then allowed to stand in a dark place for 10 minutes. Thereafter, the luminescence intensity of viable cells in each well was measured using a microplate reader (PerkinElmer, EnSpire). […] Cell growth rate (%)=T/C×100 T: The luminescence intensity in a well to which the compound of the present invention was added (count per second) C: The luminescence intensity in a well to which dimethylsulfoxide alone was added (count per second)

[2] = system: NCI-H1417 cells (human small-cell lung cancer cell lines); assay: cells; conditions: NCI-H1417, read-out: Cell-Growth Inhibition Test: NCI-H1417 Cells IC50 (nM);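 note: growth of NCI-H1417 cells over 10 days at 37 °C, read as viable-cell luminescence by CellTiter-Glo 2.0, expressed as % of DMSO-only control wells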

SMILES: Cc1ccc(-c2ccc(C(=O)N3[C@@H]4CC[C@H]3C[C@H](N)C4)cc2-c2ccc(C#N)cc2)cc1 [Example 7]
- IC50 [1]: 14.8 nM
- IC50 [2]: 28 nM

SMILES: Cc1ccc(-c2ccc(C(=O)N3[C@@H]4CC[C@H]3C[C@@H](N)C4)cc2-c2ccc(C#N)c(F)c2)c(F)c1 [Example 21]
- IC50 [1]: 8.34 nM
- IC50 [2]: 32.6 nM

SMILES: COCCc1ccc(-c2ccc(C(=O)N3[C@@H]4CC[C@H]3C[C@H](N)C4)cc2-c2ccc(C#N)c(F)c2)c(F)c1 [Example 26]
- IC50 [1]: 4.83 nM
- IC50 [2]: 3.15 nM

SMILES: CC(C)(O)Cc1ccc(-c2ccc(C(=O)N3[C@@H]4CC[C@H]3C[C@H](N)C4)cc2-c2ccc(C#N)c(F)c2)c(F)c1 [Example 28]
- IC50 [2]: 4.4 nM

SMILES: N#Cc1ccc(-c2cc(C(=O)N3[C@@H]4CC[C@H]3C[C@H](N)C4)ccc2-c2ccc3ccccc3c2)cc1F [Example 104]
- IC50 [1]: 28.8 nM
- IC50 [2]: 49.8 nM

SMILES: N#Cc1ccc(-c2cc(C(=O)N3[C@@H]4CC[C@H]3C[C@H](N)C4)ccc2-c2ccc3cccnc3c2F)cc1F [Example 105]
- IC50 [2]: 11.7 nM

SMILES: CN1CCOc2cc(-c3ccc(C(=O)N4[C@@H]5CC[C@H]4C[C@H](N)C5)cc3-c3ccc(C#N)c(F)c3)ccc21 [Example 106]
- IC50 [1]: 5.74 nM
- IC50 [2]: 6.15 nM

SMILES: N#Cc1ccc(-c2cc(C(=O)N3[C@@H]4CC[C@H]3C[C@H](N)C4)ccc2-c2ccc3cccnc3c2)cc1F [Example 107]
- IC50 [2]: 18.2 nM

SMILES: Cn1cnc2cc(-c3ccc(C(=O)N4[C@@H]5CC[C@H]4C[C@H](N)C5)cc3-c3ccc(C#N)c(F)c3)c(F)cc21 [Example 108]
- IC50 [1]: 36.4 nM
- IC50 [2]: 3.99 nM

SMILES: Cn1nnc2cc(-c3ccc(C(=O)N4[C@@H]5CC[C@H]4C[C@H](N)C5)cc3-c3ccc(C#N)c(F)c3)c(F)cc21 [Example 109]
- IC50 [1]: 15.1 nM
- IC50 [2]: 1.81 nM

SMILES: Cn1ncc2c(F)c(-c3ccc(C(=O)N4[C@@H]5CC[C@H]4C[C@H](N)C5)cc3-c3ccc(C#N)c(F)c3)ccc21 [Example 110]
- IC50 [1]: 7.41 nM
- IC50 [2]: 3.54 nM

SMILES: COCCc1ccc(-c2ccc(C(=O)N3[C@@H]4CC[C@H]3C[C@H](NC(C)C)C4)cc2-c2ccc(C#N)c(F)c2)c(F)c1 [Example 112]
- IC50 [2]: 20.5 nM

SMILES: CC(C)N[C@@H]1C[C@H]2CC[C@@H](C1)N2C(=O)c1ccc(-c2ccc(CC(C)(C)O)cc2F)c(-c2ccc(C#N)c(F)c2)c1 [Example 113]
- IC50 [1]: 9 nM
- IC50 [2]: 13.7 nM

SMILES: Cn1ncc2cc(-c3ccc(C(=O)N4[C@@H]5CC[C@H]4C[C@@H](N)C5)cc3-c3ccc(C#N)c(F)c3)c(F)cc21 [Example 124]
- IC50 [1]: 2.84 nM
- IC50 [2]: 9.02 nM

SMILES: Cn1nnc2cc(-c3ccc(C(=O)N4[C@@H]5CC[C@H]4C[C@@H](N)C5)cc3-c3ccc(C#N)c(F)c3)c(F)cc21 [Example 125]
- IC50 [1]: 7.57 nM
- IC50 [2]: 8.43 nM

SMILES: CN1CCOc2cc(-c3ccc(C(=O)N4[C@@H]5CC[C@H]4C[C@@H](N)C5)cc3-c3ccc(C#N)c(F)c3)ccc21 [Example 128]
- IC50 [1]: 5.7 nM

SMILES: CC(C)(C)n1nnc2cc(-c3ccc(C(=O)N4[C@@H]5CC[C@H]4C[C@@H](N)C5)cc3-c3ccc(C#N)c(F)c3)c(F)cc21 [Example 139]
- IC50 [1]: 16.9 nM

SMILES: Cc1ccc(-c2ccc(C(=O)N3[C@@H]4CC[C@H]3C[C@@H](N)C4)cc2-c2ccc(C#N)c(F)c2)c(F)c1F [Example 144]
- IC50 [1]: 6.37 nM

SMILES: CC(C)(O)Cn1ccc2cc(-c3ccc(C(=O)N4C5CCC4C(N)C5)cc3-c3ccc(C#N)c(F)c3)c(F)cc21 (stereo not drawn) [Example 171]
- IC50 [1]: 0.09 nM

SMILES: Cn1nnc2cc(-c3ccc(C(=O)N4C5CCC4C(N)C5)cc3-c3ccc(C#N)c(F)c3)c(F)c(F)c21 (stereo not drawn) [Example 175]
- IC50 [1]: 0.2 nM

SMILES: CC(C)(O)Cn1ncc2cc(-c3ccc(C(=O)N4C5CCC4C(N)C5)cc3-c3ccc(C#N)c(F)c3)c(F)cc21 (stereo not drawn) [Example 176]
- IC50 [1]: 0.2 nM

SMILES: Cn1cc(C(=O)O)c2cc(-c3ccc(C(=O)N4C5CCC4C(N)C5)cc3-c3ccc(C#N)c(F)c3)c(F)cc21 [Example 224, 5-(5-((1S,2S,4R)-rel-2-amino-7-azabicyclo[2.2.1]heptane-7-carbonyl)-4′-cyano-3′-fluoro-[1,1′-biphenyl]-2-yl)-6-fluoro-1-methyl-1H-indole-3-carboxylic acid-isomer-X]
- IC50 [1]: 46.2 nM
